Results taken from ChEMBL document CHEMBL1201862, “PubChem BioAssay data set” (2004).
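Briefly, cells in 96-well plates were exposed to five compound concentrations for 48 h, and endpoints were estimated by linear interpolation. At the GI50, growth is halved.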 Calls of active or inactive are those of the source. Rule as the data show it: active = GI50 up to about 1.1 µM and inactive = higher.

How the values were obtained:
Experiment in all cases: growth of human tumour cells (NCI), 48 h
LXFL 529 = tested on: LXFL 529
XF498 = tested on: XF498
DMS-114 = tested on: DMS-114
SNB-78 = tested on: SNB-78
DMS-273 = tested on: DMS-273
HOP-18 = tested on: HOP-18
KM-20L2 = tested on: KM-20L2
RXF 631 = tested on: RXF 631
DLD-1 = tested on: DLD-1

Measured: GI50

O=C1C2C(C(=O)N1c1ccccc1)C1(Br)c3ccccc3C2(Br)C2C(=O)N(c3ccccc3)C(=O)C21 (stereo not drawn)
inactive: LXFL 529 7.62 µM | XF498 29.2 µM | DMS-114 > 31.6 µM | SNB-78 12.5 µM | DMS-273 11.7 µM | HOP-18 18.1 µM | KM-20L2 24.5 µM | RXF 631 > 100 µM | DLD-1 16.8 µM

COC(=O)C1CC/C(=N/C2c3ccccc3-c3ccccc32)N1 (stereo not drawn)
inactive: LXFL 529 > 100 µM | XF498 > 100 µM | DMS-114 43.8 µM | SNB-78 > 100 µM | DMS-273 > 100 µM | HOP-18 > 100 µM | KM-20L2 > 100 µM | RXF 631 > 100 µM | DLD-1 > 100 µM
